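Following 48 hours of exposure in 96-well plates, responses at five concentrations were used to interpolate endpoints linearly. At the TGI there is no net growth.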
Assays:
Test in all cases: NCI-60 cell line screen, 48 h
HL-60(TB) leukemia = system: HL-60(TB) leukemia
MCF7 breast = system: MCF7 breast
SK-MEL-2 melanoma = system: SK-MEL-2 melanoma
UACC-62 melanoma = system: UACC-62 melanoma
HT29 colon = system: HT29 colon
RPMI-8226 leukemia = system: RPMI-8226 leukemia
SN12C renal = system: SN12C renal
HCT-15 colon = system: HCT-15 colon
SR leukemia = system: SR leukemia
SF-539 CNS = system: SF-539 CNS
OVCAR-5 ovarian = system: OVCAR-5 ovarian
HCT-116 colon = system: HCT-116 colon
IGROV1 ovarian = system: IGROV1 ovarian
M14 melanoma = system: M14 melanoma
SNB-75 CNS = system: SNB-75 CNS
K-562 leukemia = system: K-562 leukemia

Row | SMILES | TGI (HL-60(TB) leukemia) [µM] | TGI (MCF7 breast) [µM] | TGI (SK-MEL-2 melanoma) [µM] | TGI (UACC-62 melanoma) [µM] | TGI (HT29 colon) [µM] | TGI (RPMI-8226 leukemia) [µM] | TGI (SN12C renal) [µM] | TGI (HCT-15 colon) [µM] | TGI (SR leukemia) [µM] | TGI (SF-539 CNS) [µM] | TGI (OVCAR-5 ovarian) [µM] | TGI (HCT-116 colon) [µM] | TGI (IGROV1 ovarian) [µM] | TGI (M14 melanoma) [µM] | TGI (SNB-75 CNS) [µM] | TGI (K-562 leukemia) [µM]
1 | CCOC(=O)CN1CC(C2=C(O)CN(CC(=O)OCC)C2=O)=CC1=O | > 100 | > 100 | > 100 | > 100 | > 100 | > 100 | > 100 | > 100 | > 100 | > 100 | > 100 | > 100 | > 100 | > 100 | > 100 | > 100
2 | Cc1ccc(S(=O)(=O)N/N=C2/CC3CCC4CC2CC34)cc1 (configuration not stated) | > 100 | > 100 | > 100 | > 100 | > 100 | > 100 | > 100 | > 100 | > 100 | > 100 | > 100 | > 100 | > 100 | > 100 | > 100 | > 100
3 | CCOC(=O)C(O)(C(=O)OCC)c1cc(C(C)(C)C)c(O)c(C(C)(C)C)c1 | 98.2 | > 100 | > 100 | > 100 | > 100 | 91.3 | > 100 | > 100 | > 100 | 87.8 | > 100 | > 100 | > 100 | > 100 | > 100 | > 100
4 | COC(=O)[C@@H]1CC(C(CN)c2cn(C(=O)OC(C)(C)C)c3ccccc23)C(=O)N1C(=O)OC(C)(C)C (some centres not stated) | 59.2 | 58.5 | 55.3 | 28.8 | 55.2 | 24.1 | 32.9 | > 100 | 43.3 | 28.3 | 84.2 | > 100 | 58.1 | > 100 | 33.8 | 48.4
5 | C[N+]1(CCC[N+]2(C)CC3C4C=CC(CC4)C3C2)CCOCC1 (configuration not stated) | > 100 | > 100 | > 100 | > 100 | > 100 | > 100 | > 100 | > 100 | > 100 | > 100 | > 100 | > 100 | > 100 | > 100 | > 100 | > 100
6 | Cc1ccc(O)c(C2=CC(c3cccc(Br)c3)SC(N)=N2)c1 (configuration not stated) | 75.1 | > 100 | 39.4 | 34.5 | > 100 | 49.8 | 40.7 | 32.8 | 49.7 | 50.3 | 92.5 | 35.9 | 46.5 | 62.9 | 61.3 | 83.2
7 | CC(C)(C)C1=CC(=C2C=Cc3ccccc3O2)C=C(C(C)(C)C)C1=O | 5.92 | 13.1 | 4.71 | 8.04 | 17.3 | 5.45 | 15.3 | 19.3 | 5.35 | 20 | 15.3 | 11.4 | > 52.8 | 10.6 | 40 | 29.9
8 | C=CCc1cc(C(Cc2ccccc2)NC(C)C)cc(OCc2ccccc2)c1OCc1ccccc1 (configuration not stated) | 34.7 | 32 | 33.4 | 28.4 | 28.6 | 30.9 | 29.4 | 30.7 | 28.5 | 29 | 33.2 | 31.2 | 29.9 | 28.8 | 26.2 | 40.9
9 | CC(C)/C(=N\[N+](C)(C)C)c1ccccc1 | > 100 | > 100 | > 100 | > 100 | > 100 | > 100 | > 100 | > 100 | > 100 | > 100 | > 100 | > 100 | > 100 | > 100 | > 100 | > 100
10 | CC1CN=C(c2cccc(-c3nc(-c4cccc(C5=NCC(C)N5)c4)nc(N(C)C)n3)c2)N1 (configuration not stated) | 4.81 | 3.33 | 4.64 | 3.83 | 5.48 | 6.87 | 3.46 | 24.7 | 1.96 | 1.66 | 10.2 | 2.49 | 18.4 | 13 | 5.13 | 2.77
11 | COc1ccccc1NCc1cccc2c(=O)c3ccc(Cl)cc3oc12 | 64 | > 100 | > 100 | > 100 | > 100 | > 100 | > 100 | > 100 | > 100 | > 100 | > 100 | > 100 | > 100 | > 100 | > 100 | > 100
12 | COc1ccc2nc3n(c2c1)C(=O)c1ccccc1-3 | > 100 | > 100 | > 100 | > 100 | > 100 | > 100 | > 100 | > 100 | > 100 | > 100 | > 100 | > 100 | > 100 | > 100 | > 100 | > 100
13 | CSc1c(CC(=O)Nc2ccc(Cl)cc2)n(Cc2ccccc2)c2ccccc12 | > 100 | > 100 | 51.3 | > 100 | > 100 | > 100 | > 100 | > 100 | > 100 | 9.6 | > 100 | > 100 | > 100 | > 100 | 33.1 | > 100
14 | Cc1cccc2c(N)c3cccc(C(=O)NCC[N+]4(Cc5ccc([N+](=O)[O-])cc5)CCOCC4)c3nc12 | 58.1 | > 100 | > 100 | > 100 | > 100 | > 100 | > 100 | > 100 | 64.2 | > 100 | > 100 | 58.5 | > 100 | > 100 | 63 | > 100
15 | CC[P+]1(c2ccccc2)[C@@H](C)CC[C@@H]1C | > 100 | > 100 | > 100 | > 100 | > 100 | > 100 | > 100 | > 100 | > 100 | > 100 | > 100 | > 100 | > 100 | > 100 | > 100 | > 100
16 | O=C1CSC2=NC3=C(CSC/C3=C\c3ccccc3)C(c3ccccc3)N12 (configuration not stated) | > 100 | > 100 | > 100 | > 100 | > 100 | > 100 | > 100 | > 100 | > 100 | > 100 | > 100 | > 100 | > 100 | > 100 | > 100 | > 100
17 | CO[C@@H]1C[C@H](OC(N)=O)[C@@H]2C=C[C@@H]3/C=C(C)/C=C/[C@@H](C)[C@H](/C(C)=C/[C@@H](C)NC(C)=O)OC(=O)/C=C/C=C(C)\C=C\[C@]3(C)[C@@H]2C1 | 3.04 | 17 | 2.12 | 0.292 | 0.278 | 0.353 | 1.67 | 0.717 | 5.11 | 0.0846 | 3.63 | 0.107 | 0.471 | 0.912 | 0.0826 | 8.38
